Assay results taken from patent US9902736B2, “1-oxo/acylation-14-acylated oridonin derivative, preparation method therefor and application thereof” (HANGZHOU BENSHENG PHARMACEUTICAL CO., LTD., priority 2012, dated 2018).
In brackets after ≈: the same amount, converted by molar mass.

Each compound was assayed on K562/ADR (assay: Leukemia cell growth inhibition, MTT, 72 h). Details: Homo sapiens.
Assay type: cell-based
Method in brief: (§1)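 Viability determined by MTT following a 72-hour, 37° C, 5% CO2 incubation with test compounds at different concentrations, added the day after seeding 6000 cells per well.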

IC50 [µg/mL]	IC90 [µg/mL]	Structure (SMILES)
1.32 (≈ 3.62 µM)	3.46 (≈ 9.49 µM)	C=C1C(=O)[C@]23[C@H](O)[C@H]1CC[C@H]2[C@@]12CO[C@]3(O)[C@@H](O)[C@@H]1C(C)(C)CC[C@@H]2O [OR, Oridonin]

These compounds were tested on Kasumi-1 (assay: Leukemia cell growth inhibition, MTT, 72 h). Details: Homo sapiens.
Assay type: cell-based
Method in brief: as §1

IC50 [µg/mL]	IC90 [µg/mL]	Structure (SMILES)
1.32 (≈ 3.62 µM)	3.72 (≈ 10.2 µM)	C=C1C(=O)[C@]23[C@H](O)[C@H]1CC[C@H]2[C@@]12CO[C@]3(O)[C@@H](O)[C@@H]1C(C)(C)CC[C@@H]2O [OR, Oridonin]

The compounds below were run on H9 (assay: Leukemia cell growth inhibition, MTT, 72 h). Details: Homo sapiens, H9; 72 h, MTT.
Assay type: cell-based, human
Method in brief: as §1

IC50 [µg/mL]	IC90 [µg/mL]	Structure (SMILES)
1.36 (≈ 3.73 µM)	3.57 (≈ 9.8 µM)	C=C1C(=O)[C@]23[C@H](O)[C@H]1CC[C@H]2[C@@]12CO[C@]3(O)[C@@H](O)[C@@H]1C(C)(C)CC[C@@H]2O [OR, Oridonin]

Each compound was assayed on Jurkat (assay: Leukemia cell growth inhibition, MTT, 72 h). Details: Homo sapiens, Jurkat; 72 h, MTT.
Assay type: cell-based, human
Method in brief: as §1

IC50 [µg/mL]	IC90 [µg/mL]	Structure (SMILES)
1.89 (≈ 5.19 µM)	3.95 (≈ 10.8 µM)	C=C1C(=O)[C@]23[C@H](O)[C@H]1CC[C@H]2[C@@]12CO[C@]3(O)[C@@H](O)[C@@H]1C(C)(C)CC[C@@H]2O [OR, Oridonin]

Each compound was assayed on NB4 (assay: Leukemia cell growth inhibition, MTT, 72 h). Details: Homo sapiens, NB-4; 72 h, MTT.
Assay type: cell-based, human
Method in brief: as §1

IC50 [µg/mL]	IC90 [µg/mL]	Structure (SMILES)
0.78 (≈ 2.14 µM)	2.4 (≈ 6.59 µM)	C=C1C(=O)[C@]23[C@H](O)[C@H]1CC[C@H]2[C@@]12CO[C@]3(O)[C@@H](O)[C@@H]1C(C)(C)CC[C@@H]2O [OR, Oridonin]

Each compound was assayed on RPMI 8226 (assay: Multiple myeloma cell growth inhibition, MTT, 72 h). Details: Homo sapiens.
Assay type: cell-based
Method in brief: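 Growth inhibition by MTT after 72 h drug exposure (37 °C, 5% CO2) over a concentration range of oridonin derivatives. RPMI 8226 cells plated at 6000 per well and dosed the following day.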

IC50 [µg/mL]	IC90 [µg/mL]	Structure (SMILES)
2.73 (≈ 7.49 µM)	5.68 (≈ 15.6 µM)	C=C1C(=O)[C@]23[C@H](O)[C@H]1CC[C@H]2[C@@]12CO[C@]3(O)[C@@H](O)[C@@H]1C(C)(C)CC[C@@H]2O [OR, Oridonin]

Each compound was assayed on CNE (assay: Solid tumor cell growth inhibition, MTT, 72 h). Details: Homo sapiens, CNE; 72 h, MTT.
Assay type: cell-based, human
Method in brief: (§2)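 After overnight-scale attachment (24 hours, 37° C, 5% CO2) in 10% FBS high-glucose DMEM, wells holding 6000 cells were dosed with varying compound concentrations and later scored for viable cell concentration.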

IC50 [µg/mL]	IC90 [µg/mL]	Structure (SMILES)
5.45 (≈ 15 µM)	10.5 (≈ 28.9 µM)	C=C1C(=O)[C@]23[C@H](O)[C@H]1CC[C@H]2[C@@]12CO[C@]3(O)[C@@H](O)[C@@H]1C(C)(C)CC[C@@H]2O [OR, Oridonin]

What follows are compounds tested on Hela (assay: Solid tumor cell growth inhibition, MTT, 72 h). Details: Homo sapiens, HeLa; 72 h, MTT.
Assay type: cell-based, human
Method in brief: as §2

IC50 [µg/mL]	IC90 [µg/mL]	Structure (SMILES)
5.22 (≈ 14.3 µM)	10.7 (≈ 29.4 µM)	C=C1C(=O)[C@]23[C@H](O)[C@H]1CC[C@H]2[C@@]12CO[C@]3(O)[C@@H](O)[C@@H]1C(C)(C)CC[C@@H]2O [OR, Oridonin]

These compounds were tested on Hep-2 (assay: Solid tumor cell growth inhibition, MTT, 72 h). Details: Homo sapiens, HEp-2; 72 h, MTT.
Assay type: cell-based, human
Method in brief: as §2

IC50 [µg/mL]	IC90 [µg/mL]	Structure (SMILES)
4.66 (≈ 12.8 µM)	7.99 (≈ 21.9 µM)	C=C1C(=O)[C@]23[C@H](O)[C@H]1CC[C@H]2[C@@]12CO[C@]3(O)[C@@H](O)[C@@H]1C(C)(C)CC[C@@H]2O [OR, Oridonin]

Each compound was assayed on MGC-803 (assay: Solid tumor cell growth inhibition, MTT, 72 h). Details: Homo sapiens, MGC-803; 72 h, MTT.
Assay type: cell-based, human
Method in brief: as §2

IC50 [µg/mL]	IC90 [µg/mL]	Structure (SMILES)
5.88 (≈ 16.1 µM)	7.95 (≈ 21.8 µM)	C=C1C(=O)[C@]23[C@H](O)[C@H]1CC[C@H]2[C@@]12CO[C@]3(O)[C@@H](O)[C@@H]1C(C)(C)CC[C@@H]2O [OR, Oridonin]

What follows are compounds tested on A549 (assay: Solid tumor cell growth inhibition, MTT, 72 h). Details: Homo sapiens.
Assay type: cell-based
Method in brief: as §2

IC50 [µg/mL]	IC90 [µg/mL]	Structure (SMILES)
13.7 (≈ 37.6 µM)	> 16	C=C1C(=O)[C@]23[C@H](O)[C@H]1CC[C@H]2[C@@]12CO[C@]3(O)[C@@H](O)[C@@H]1C(C)(C)CC[C@@H]2O [OR, Oridonin]

The compounds below were run on Becap-37 (assay: Solid tumor cell growth inhibition, MTT, 72 h). Details: Homo sapiens.
Assay type: cell-based
Method in brief: as §2

IC50 [µg/mL]	IC90 [µg/mL]	Structure (SMILES)
5.06 (≈ 13.9 µM)	12.9 (≈ 35.5 µM)	C=C1C(=O)[C@]23[C@H](O)[C@H]1CC[C@H]2[C@@]12CO[C@]3(O)[C@@H](O)[C@@H]1C(C)(C)CC[C@@H]2O [OR, Oridonin]

What follows are compounds tested on CaEs-17 (assay: Solid tumor cell growth inhibition, MTT, 72 h). Details: Homo sapiens, CaEs17.
Assay type: cell-based
Method in brief: as §2

IC50 [µg/mL]	IC90 [µg/mL]	Structure (SMILES)
3.31 (≈ 9.08 µM)	6.86 (≈ 18.8 µM)	C=C1C(=O)[C@]23[C@H](O)[C@H]1CC[C@H]2[C@@]12CO[C@]3(O)[C@@H](O)[C@@H]1C(C)(C)CC[C@@H]2O [OR, Oridonin]

Each compound was assayed on Hep G2 (assay: Solid tumor cell growth inhibition, MTT, 72 h). Details: Homo sapiens, HepG2.
Assay type: cell-based
Method in brief: as §2

IC50 [µg/mL]	IC90 [µg/mL]	Structure (SMILES)
6.77 (≈ 18.6 µM)	13.1 (≈ 36 µM)	C=C1C(=O)[C@]23[C@H](O)[C@H]1CC[C@H]2[C@@]12CO[C@]3(O)[C@@H](O)[C@@H]1C(C)(C)CC[C@@H]2O [OR, Oridonin]

Each compound was assayed on MG-63 (assay: Solid tumor cell growth inhibition, MTT, 72 h). Details: Homo sapiens.
Assay type: cell-based
Method in brief: as §2

IC50 [µg/mL]	IC90 [µg/mL]	Structure (SMILES)
1.86 (≈ 5.1 µM)	5.6 (≈ 15.4 µM)	C=C1C(=O)[C@]23[C@H](O)[C@H]1CC[C@H]2[C@@]12CO[C@]3(O)[C@@H](O)[C@@H]1C(C)(C)CC[C@@H]2O [OR, Oridonin]

What follows are compounds tested on PANC-1 (assay: Solid tumor cell growth inhibition, MTT, 72 h). Details: Homo sapiens.
Assay type: cell-based
Method in brief: as §2

IC50 [µg/mL]	IC90 [µg/mL]	Structure (SMILES)
9.1 (≈ 25 µM)	16 (≈ 43.9 µM)	C=C1C(=O)[C@]23[C@H](O)[C@H]1CC[C@H]2[C@@]12CO[C@]3(O)[C@@H](O)[C@@H]1C(C)(C)CC[C@@H]2O [OR, Oridonin]

What follows are compounds tested on PC-3 (assay: Solid tumor cell growth inhibition, MTT, 72 h). Details: Homo sapiens.
Assay type: cell-based
Method in brief: as §2

IC50 [µg/mL]	IC90 [µg/mL]	Structure (SMILES)
7.94 (≈ 21.8 µM)	13 (≈ 35.6 µM)	C=C1C(=O)[C@]23[C@H](O)[C@H]1CC[C@H]2[C@@]12CO[C@]3(O)[C@@H](O)[C@@H]1C(C)(C)CC[C@@H]2O [OR, Oridonin]

The compounds below were run on RKO (assay: Solid tumor cell growth inhibition, MTT, 72 h). Details: Homo sapiens.
Assay type: cell-based
Method in brief: as §2

IC50 [µg/mL]	IC90 [µg/mL]	Structure (SMILES)
2.24 (≈ 6.15 µM)	3.96 (≈ 10.9 µM)	C=C1C(=O)[C@]23[C@H](O)[C@H]1CC[C@H]2[C@@]12CO[C@]3(O)[C@@H](O)[C@@H]1C(C)(C)CC[C@@H]2O [OR, Oridonin]

These compounds were tested on SK-OV-3 (assay: Solid tumor cell growth inhibition, MTT, 72 h). Details: Homo sapiens, SK-OV-3; 72 h, MTT; read-out: IC50 SK-OV-3.
Assay type: cell-based
Method in brief: as §2

IC50 [µg/mL]	Structure (SMILES)
7.94 (≈ 21.8 µM)	C=C1C(=O)[C@]23[C@H](O)[C@H]1CC[C@H]2[C@@]12CO[C@]3(O)[C@@H](O)[C@@H]1C(C)(C)CC[C@@H]2O [OR, Oridonin]

Same assay, conditions: Homo sapiens, SK-OV-3; 72 h, MTT; read-out: IC90 SK-OV-3

IC90 [µg/mL]	Structure (SMILES)
13 (≈ 35.6 µM)	C=C1C(=O)[C@]23[C@H](O)[C@H]1CC[C@H]2[C@@]12CO[C@]3(O)[C@@H](O)[C@@H]1C(C)(C)CC[C@@H]2O [OR, Oridonin]

The compounds below were run on U87-MG (assay: Solid tumor cell growth inhibition, MTT, 72 h). Details: Homo sapiens, U-87 MG.
Assay type: cell-based
Method in brief: as §2

IC50 [µg/mL]	IC90 [µg/mL]	Structure (SMILES)
2.58 (≈ 7.08 µM)	6.67 (≈ 18.3 µM)	C=C1C(=O)[C@]23[C@H](O)[C@H]1CC[C@H]2[C@@]12CO[C@]3(O)[C@@H](O)[C@@H]1C(C)(C)CC[C@@H]2O [OR, Oridonin]
